Source: patent publication US11498923B2 (Merck Sharp & Dohme Corp., priority 2017, dated 2022)

These molecules were tested against T1, human A2a receptor (Homo sapiens, UniProt P29274) (assay: A2a receptor competition binding assay (Scintillation Proximity)). Settings: A2a Ki, membranes from HEK293 cells expressing human A2a receptor; 0.5 nM tritiated ligand; Cheng-Prusoff.
T1 construct: purchased Perkin-Elmer RBHA2AM400UA; host or cells: HEK293 cells, used as a membrane preparation
Method in brief: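 Ki values were obtained with the Cheng-Prusoff equation from competition curves against 0.5 nM tritiated antagonist, scintillation proximity counting after 1 h room-temperature incubation. Receptor came from HEK293 membranes pretreated with adenosine deaminase; compound final range 3000–0.15 nM, buffer Ca/Mg-free PBS with 10 mM MgCl2.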

T1 sequence (P29274 whole entry): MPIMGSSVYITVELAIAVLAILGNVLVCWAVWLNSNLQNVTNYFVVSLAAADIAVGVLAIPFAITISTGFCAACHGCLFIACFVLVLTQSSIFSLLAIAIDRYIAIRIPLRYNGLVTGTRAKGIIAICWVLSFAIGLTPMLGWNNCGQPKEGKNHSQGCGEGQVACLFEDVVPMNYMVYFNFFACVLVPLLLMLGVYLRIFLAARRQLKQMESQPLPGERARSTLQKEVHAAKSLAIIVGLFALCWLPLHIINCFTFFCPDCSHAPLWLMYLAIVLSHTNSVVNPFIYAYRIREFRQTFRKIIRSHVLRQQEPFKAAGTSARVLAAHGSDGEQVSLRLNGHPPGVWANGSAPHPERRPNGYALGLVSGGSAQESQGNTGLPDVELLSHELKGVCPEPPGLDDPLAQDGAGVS

Compound | Ki
COc1cccc2c1nc(N)n1cc(C(=O)N3C4CCCC3CC4)nc21 [Ex-208, (5-amino-7-methoxyimidazo[1,2-c]quinazolin-2-yl)(8-azabicyclo[3.2.1]octan-8-yl)methanone] | 0.0032 µM
COc1cccc2c1nc(N)n1cc(C(=O)N3C4CCC3CC4)nc21 [Ex-218, (5-amino-7-methoxyimidazo[1,2-c]quinazolin-2-yl)((1s,4s)-7-azabicyclo[2.2.1]heptan-7-yl)methanone] | 0.0061 µM
COc1cccc2c1nc(N)n1cc(C(=O)N3C4CCC3COC4)nc21 [Ex-224, (5-amino-7-methoxyimidazo[1,2-c]quinazolin-2-yl)(3-oxa-8-azabicyclo[3.2.1]octan-8-yl)methanone] | 0.0082 µM

Same assay, conditions: membranes from HEK293 cells expressing human A2a receptor; 0.5 nM tritiated ligand; Cheng-Prusoff; read-out: A2a Ki

Compound | Ki
COc1cccc2c1nc(N)n1cc(C(=O)N3CCC[C@H]3C(F)(F)F)nc21 [Ex-211, (S)-(5-amino-7-methoxyimidazo[1,2-c]quinazolin-2-yl)(2-(trifluoromethyl)pyrrolidin-1-yl)methanone] | 0.014 µM
COc1cccc2c1nc(N)n1cc(C(=O)N3CC[C@@H](CF)C3)nc21 [Ex-214, (R)-(5-amino-7-methoxyimidazo[1,2-c]quinazolin-2-yl)(3-(fluoromethyl)pyrrolidin-1-yl)methanone] | 0.011 µM
COc1cccc2c1nc(N)n1cc(C(=O)N3CCC[C@@H]3C)nc21 [Ex-216, (S)-(5-amino-7-methoxyimidazo[1,2-c]quinazolin-2-yl)(2-methylpyrrolidin-1-yl)methanone] | 0.01 µM
COc1cccc2c1nc(N)n1cc(C(=O)N3CCC4OCCC43)nc21 (centres unmarked) [Ex-220, (5-amino-7-methoxyimidazo[1,2-c]quinazolin-2-yl)(hexahydro-4H-furo[3,2-b]pyrrol-4-yl)methanone] | 0.024 µM
COc1cccc2c1nc(N)n1cc(C(=O)N3CCC4(CCCC4)C3)nc21 [Ex-222, (5-amino-7-methoxyimidazo[1,2-c]quinazolin-2-yl)(2-azaspiro[4.4]nonan-2-yl)methanone] | 0.011 µM
COc1cccc2c1nc(N)n1cc(C(=O)N3CC(C)(C)OC(C)(C)C3)nc21 [Ex-223, (5-amino-7-methoxyimidazo[1,2-c]quinazolin-2-yl)(2,2,6,6-tetramethylmorpholino) methanone] | 0.21 µM
COc1cccc2c1nc(N)n1cc(C(=O)N3C[C@@H]4C[C@H]3CO4)nc21 [Ex-225, (5-amino-7-methoxyimidazo[1,2-c]quinazolin-2-yl)((1S,4S)-2-oxa-5-azabicyclo[2.2.1]heptan-5-yl)methanone] | 0.035 µM
COC(=O)C1CCN(C(=O)c2cn3c(N)nc4c(OC)cccc4c3n2)CC1 [Ex-226, methyl 1-(5-amino-7-methoxyimidazo[1,2-c]quinazoline-2-carbonyl]piperidine-4-carboxylate] | 0.029 µM
COc1cccc2c1nc(N)n1cc(C(=O)N3CCC4(CCC(=O)O4)CC3)nc21 [Ex-227, 8-(5-amino-7-methoxyimidazo[1,2-c]quinazoline-2-carbonyl)-1-oxa-8-azaspiro[4.5]decan-2-one] | 0.24 µM
COc1cccc2c1nc(N)n1cc(C(=O)N3CCC4(CCOC4=O)CC3)nc21 [Ex-228, 8-(5-amino-7-methoxyimidazo[1,2-c]quinazoline-2-carbonyl)-2-oxa-8-azaspiro[4.5]decan-1-one] | 0.18 µM
COc1cccc2c1nc(N)n1cc(C(=O)N3CCCC4(C3)CC(C)(C)OC4=O)nc21 (centres unmarked) [Ex-229, 7-(5-amino-7-methoxyimidazo[1,2-c]quinazoline-2-carbonyl)-3,3-dimethyl-2-oxa-7-azaspiro[4.5]decan-1-one] | 0.015 µM
COc1cccc2c1nc(N)n1cc(C(=O)N3CCC4(CCCO4)CC3)nc21 [Ex-230, (5-amino-7-methoxyimidazo[1,2-c]quinazolin-2-yl)(1-oxa-8-azaspiro[4.5]decan-8-yl)methanone] | 0.0611 µM
COc1cccc2c1nc(N)n1cc(C(=O)N3CCCC4(C3)OCCO4)nc21 [Ex-231, (5-amino-7-methoxyimidazo[1,2-c]quinazolin-2-yl)(1,4-dioxa-7-azaspiro[4.5]decan-7-yl)methanone] | 0.01 µM
COc1cccc2c1nc(N)n1cc(C(=O)N3CCCC(OC)(OC)C3)nc21 [Ex-232, (5-amino-7-methoxyimidazo[1,2-c]quinazolin-2-yl)(3,3-dimethoxypiperidin-1-yl)methanone] | 0.018 µM
COc1cccc2c1nc(N)n1cc(C(=O)N3CCCC4(CCOC4=O)C3)nc21 (centres unmarked) [Ex-233, 7-(5-amino-7-methoxyimidazo[1,2-c]quinazoline-2-carbonyl)-2-oxa-7-azaspiro[4.5]decan-1-one] | 0.01 µM

Second part, the molecule after the results:

Ki | Compound
0.01 µM | COc1cccc2c1nc(N)n1cc(C(=O)N3CC[C@@H](OC)C3)nc21 [Ex-213, (R)-(5-amino-7-methoxyimidazo[1,2-c]quinazolin-2-yl)(3-methoxypyrrolidin-1-yl)methanone]
0.0078 µM | COc1cccc2c1nc(N)n1cc(C(=O)N3CCC[C@@H]3C(F)(F)F)nc21 [Ex-217, (R)-(5-amino-7-methoxyimidazo[1,2-c]quinazolin-2-yl)(2-(trifluoromethyl)pyrrolidin-1-yl)methanone]
0.0074 µM | COc1cccc2c1nc(N)n1cc(C(=O)N3CC[C@H](F)C3)nc21 [Ex-215, (S)-(5-amino-7-methoxyimidazo[1,2-c]quinazolin-2-yl)(3-fluoropyrrolidin-1-yl)methanone]
0.0066 µM | COc1cccc2c1nc(N)n1cc(C(=O)N3CCC(F)(F)C3)nc21 [Ex-221, (5-amino-7-methoxyimidazo[1,2-c]quinazolin-2-yl)(3,3-difluoropyrrolidin-1-yl)methanone]
0.0061 µM | COc1cccc2c1nc(N)n1cc(C(=O)N3C(C)CCC3C)nc21 (centres unmarked) [Ex-210, (5-amino-7-methoxyimidazo[1,2-c]quinazolin-2-yl)(2,5-dimethylpyrrolidin-1-yl)methanone]
0.0055 µM | COc1cccc2c1nc(N)n1cc(C(=O)N3CC[C@H](OC)C3)nc21 [Ex-212, (S)-(5-amino-7-methoxyimidazo[1,2-c]quinazolin-2-yl)(3-methoxypyrrolidin-1-yl)methanone]
0.0036 µM | COc1cccc2c1nc(N)n1cc(C(=O)N3CCC[C@H]3CF)nc21 [Ex-219, (S)-(5-amino-7-methoxyimidazo[1,2-c]quinazolin-2-yl)(2-(fluoromethyl)pyrrolidin-1-yl)methanone]
0.0029 µM | COc1cccc2c1nc(N)n1cc(C(=O)N3CCCC3C(C)C)nc21 (centres unmarked) [Ex-209, (5-amino-7-methoxyimidazo[1,2-c]quinazolin-2-yl)(2-isopropylpyrrolidin-1-yl)methanone]
0.0028 µM | COc1cccc2c1nc(N)n1cc(C(=O)N3CC4CC4C3)nc21 (centres unmarked) [Ex-235, (5-amino-7-methoxyimidazo[1,2-c]quinazolin-2-yl)(3-azabicyclo[3.1.0]hexan-3-yl)methanone]
0.0026 µM | COc1cccc2c1nc(N)n1cc(C(=O)N3CCC4(CC3)OCCC4(C)C)nc21 [Ex-234, (5-amino-7-methoxyimidazo[1,2-c]quinazolin-2-yl)(4,4-dimethyl-1-oxa-8-azaspiro[4.5]decan-8-yl)methanone]
0.0021 µM | COc1cccc2c1nc(N)n1cc(C(=O)N3CCC(C)(C)CC3)nc21 [Ex-207, (5-amino-7-methoxyimidazo[1,2-c]quinazolin-2-yl)(4,4-dimethylpiperidin-1-yl)methanone]
